Assay results reported in patent US9556179B2 (BRISTOL-MYERS SQUIBB COMPANY, priority 2012, dated 2017).
pIC50: −log10 of the molar value.

Tests used:
CK1ε = CK1ε (Homo sapiens (Human), UniProt P49674); assay: CK1ε kinase assay (Caliper LABCHIP electrophoretic separation of fluoresceinated peptide substrate and product); type: biochemical; conditions: 200 pM enzyme, 50 μM ATP, 22 hours at room temperature
Outline: (§1)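 Compounds, taken from 10 mM DMSO stocks, are titrated at eleven concentrations. Kinase reactions proceed for 22 hours at room temperature and are quenched with EDTA. Substrate and product are resolved electrophoretically, and IC50 values are fitted by non-linear regression.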

CK1δ = CK1δ (Homo sapiens (Human), UniProt P48730); assay: CK1δ kinase assay (Caliper LABCHIP electrophoretic separation of fluoresceinated peptide substrate and product); type: biochemical; conditions: 200 pM enzyme, 50 μM ATP, 22 hours at room temperature
Outline: as §1

Sequence of CK1ε (P49674 whole entry): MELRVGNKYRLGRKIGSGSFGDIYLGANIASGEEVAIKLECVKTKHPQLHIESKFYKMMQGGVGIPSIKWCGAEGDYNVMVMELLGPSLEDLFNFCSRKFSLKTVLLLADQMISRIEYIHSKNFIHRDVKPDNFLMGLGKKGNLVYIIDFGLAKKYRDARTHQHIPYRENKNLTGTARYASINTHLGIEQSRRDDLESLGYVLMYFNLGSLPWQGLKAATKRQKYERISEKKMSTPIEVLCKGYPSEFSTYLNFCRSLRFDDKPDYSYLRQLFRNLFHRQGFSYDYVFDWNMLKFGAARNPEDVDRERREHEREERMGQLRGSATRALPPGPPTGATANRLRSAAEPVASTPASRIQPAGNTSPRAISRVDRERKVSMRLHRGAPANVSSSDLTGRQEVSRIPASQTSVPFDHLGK
Sequence of CK1δ (P48730 whole entry): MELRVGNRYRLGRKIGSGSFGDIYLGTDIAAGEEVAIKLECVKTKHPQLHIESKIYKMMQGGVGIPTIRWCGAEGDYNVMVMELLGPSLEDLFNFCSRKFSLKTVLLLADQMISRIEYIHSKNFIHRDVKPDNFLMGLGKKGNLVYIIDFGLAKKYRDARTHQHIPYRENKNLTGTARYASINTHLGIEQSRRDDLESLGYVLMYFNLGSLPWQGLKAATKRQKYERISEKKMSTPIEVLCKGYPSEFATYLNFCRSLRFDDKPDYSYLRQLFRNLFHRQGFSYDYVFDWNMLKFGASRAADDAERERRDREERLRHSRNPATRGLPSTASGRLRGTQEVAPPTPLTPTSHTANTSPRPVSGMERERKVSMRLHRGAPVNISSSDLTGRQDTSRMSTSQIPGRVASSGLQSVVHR

| SMILES | pIC50 (CK1ε) | pIC50 (CK1δ) |
| --- | --- | --- |
| Cc1nc(-c2ccc(F)cc2)c(-c2ccc3nc(NC(=O)c4cccc5cccnc45)cn3n2)n1C [Compound 344, N-(6-(4-(4-fluorophenyl)-1,2-dimethyl-1H-imidazol-5-yl)imidazo[1,2-b]pyridazin-2-yl)-8-quinolinecarboxamide] | 6.95 | 7.84 |
| Cc1nc(-c2ccc(F)cc2)c(-c2ccc3nc(NC(=O)c4cc5ccc(F)cc5[nH]4)cn3n2)n1C [Compound 332, 6-fluoro-N-(6-(4-(4-fluoro-phenyl)-1,2-dimethyl-1H-imidazol-5-yl)imidazo[1,2-b]pyridazin-2-yl)-1H-indole-2-carboxamide] | 8.16 | 9.06 |
| Cc1nc(-c2ccc(F)cc2)c(-c2ccc3nc(NC(=O)c4ccnn4C)cn3n2)n1C [Compound 352, N-(6-(4-(4-fluorophenyl)-1,2-dimethyl-1H-imidazol-5-yl)imidazo[1,2-b]pyridazin-2-yl)-1-methyl-1H-pyrazole-5-carboxamide] | 8.49 | 9.23 |
| Cc1nc(-c2ccc(F)cc2)c(-c2ccc3nc(NC(=O)c4ccncc4)cn3n2)[nH]1 [Compound 228, N-(6-(4-(4-fluorophenyl)-2-methyl-1H-imidazol-5-yl)imidazo[1,2-b]pyridazin-2-yl)isonicotinamide] | 8.74 | 8.68 |
| Cc1ccc(-c2nc(C)n(C)c2-c2ccc3nc(NC(=O)c4ccnc(F)c4)cn3n2)cc1 [Compound 300, N-(6-(1,2-dimethyl-4-(p-tolyl)-1H-imidazol-5-yl)imidazo[1,2-b]pyridazin-2-yl)-2-fluoroiso-nicotinamide] | 7.46 | 8.74 |
| O=C(Nc1cn2nc(-c3c(-c4ccc(F)cc4)ncn3-c3cccnc3)ccc2n1)c1cccc(-c2cccnc2)c1 [Compound 425, N-(6-(4-(4-Fluorophenyl)-1-(pyridin-3-yl)-1H-imidazol-5-yl)imidazo[1,2-b]pyridazin-2-yl)-3-(pyridin-3-yl)benzamide] | 7.96 | 8.96 |
| Cc1oncc1C(=O)Nc1cn2nc(-c3c(-c4ccc(F)cc4)nc(C)n3C)ccc2n1 [Compound 365, N-(6-(4-(4-fluorophenyl)-1,2-dimethyl-1H-imidazol-5-yl)imidazo[1,2-b]pyridazin-2-yl)-5-methyl-4-isoxazole-carboxamide] | 5.96 | 6.99 |
| Cc1nc(-c2ccc(F)cc2)c(-c2ccc3nc(NC(=O)c4cnc(-c5ccncc5)s4)cn3n2)n1C [Compound 390, N-(6-(4-(4-fluorophenyl)-1,2-dimethyl-1H-imidazol-5-yl)imidazo[1,2-b]pyridazin-2-yl)-2-(pyridin-4-yl)thiazole-5-carboxamide] | 7.49 | 8.14 |
| O=C(Nc1cn2nc(-c3c(-c4ccc(F)cc4)nc4ccccn34)ccc2n1)c1cncc(-c2cccs2)c1 [Compound 212, N-(6-(2-(4-fluorophenyl)imidazo[1,2-a]pyridin-3-yl)imidazo[1,2-b]pyridazin-2-yl)-5-(thiophen-2-yl) nicotinamide] | 8.22 | 9.19 |
| Cc1nc(-c2cccnc2)sc1C(=O)Nc1cn2nc(-c3c(-c4ccc(F)cc4)ncn3C3CCN(C[C@H](O)C(F)(F)F)CC3)ccc2n1 [Compound 99, (S)—N-(6-(4-(4-fluorophenyl)-1-(1-(3,3,3-trifluoro-2-hydroxypropyl)piperidin-4-yl)-1H-imidazol-5-yl)imidazo[1,2-b]pyridazin-2-yl)-4-methyl-2-(pyridin-3-yl)thiazole-5-carboxamide] | 8.90 | 9.48 |
| Cc1nc(-c2ccc(F)cc2)c(-c2ccc3nc(NC(=O)c4ccncc4F)cn3n2)n1C [Compound 397, 3-fluoro-N-(6-(4-(4-fluoro-phenyl)-1,2-dimethyl-1H-imidazol-5-yl)imidazo[1,2-b]pyridazin-2-yl)isonicotin-amide] | 8.18 | 8.56 |
| Cc1nc(-c2ccc(F)cc2)c(-c2ccc3nc(NC(=O)c4cc5c(F)cccc5[nH]4)cn3n2)n1C [Compound 341, 4-fluoro-N-(6-(4-(4-fluoro-phenyl)-1,2-dimethyl-1H-imidazol-5-yl)imidazo[1,2-b]pyridazin-2-yl)-1H-indole-2-carboxamide] | 8.05 | 8.88 |
| Cc1nocc1C(=O)Nc1cn2nc(-c3c(-c4ccc(F)cc4)nc(C)n3C)ccc2n1 [Compound 361, N-(6-(4-(4-fluorophenyl)-1,2-dimethyl-1H-imidazol-5-yl)imidazo[1,2-b]pyridazin-2-yl)-3-methyl-4-isoxazole-carboxamide] | 5.90 | 7.13 |

Continued, values first:

| pIC50 (CK1ε) | pIC50 (CK1δ) | SMILES |
| --- | --- | --- |
| 7.24 | 8.60 | O=C(Nc1cn2nc(-c3c(-c4ccc(F)cc4)ncn3-c3ccc(F)cc3)ccc2n1)c1ccnc(F)c1 [Compound 416, N-(6-(1,4-bis(4-Fluorophenyl)-1H-imidazol-5-yl)imidazo[1,2-b]pyridazin-2-yl)-2-fluoroisonicotinamide] |
| 7.27 | 8.48 | O=C(Nc1cn2nc(-c3c(-c4ccc(F)cc4)nc(C4CC4)n3C3CCN(CCC(F)(F)F)CC3)ccc2n1)c1ccnc(F)c1 [Compound 130, N-(6-(2-cyclopropyl-4-(4-fluorophenyl)-1-(1-(3,3,3-trifluoropropyl)piperidin-4-yl)-1H-imidazol-5-yl)imidazo [1,2-b]pyridazin-2-yl)-2-fluoroisonicotinamide] |
| 7.78 | 8.78 | O=C(Nc1cn2nc(-c3c(-c4ccc(F)cc4)ncn3CCN3CCCC3=O)ccc2n1)c1ccnc(F)c1 [Compound 272, 2-fluoro-N-(6-(4-(4-fluorophenyl)-1-(2-(2-oxo-1-pyrrolidinyl)ethyl)-1H-imidazol-5-yl)imidazo[1,2-b]pyridazin-2-yl)isonicotinamide] |
| 7.83 | 9.39 | O=C(Nc1cn2nc(-c3c(-c4ccc(F)cc4)ncn3CCN3CCCCC3=O)ccc2n1)c1ccnc(F)c1 [Compound 261, 2-fluoro-N-(6-(4-(4-fluorophenyl)-1-(2-(2-oxopiperidin-1-yl)ethyl)-1H-imidazol-5-yl)imidazo[1,2-b]pyridazin-2-yl)isonicotinamide] |
| 8.82 | 9.36 | N#CCCN1CCC(n2cnc(-c3ccc(F)cc3)c2-c2ccc3nc(NC(=O)c4ccnc5ccccc45)cn3n2)CC1 [Compound 113, N-(6-(1-(1-(2-cyanoethyl)piperidin-4-yl)-4-(4-fluorophenyl)-1H-imidazol-5-yl)imidazo[1,2-b]pyridazin-2-yl)quinoline-4-carboxamide] |
| 8.98 | 9.40 | O=C(Nc1cn2nc(-c3c(-c4ccc(F)cc4)ncn3C3CCNCC3)ccc2n1)c1cc(F)nc(F)c1 [Compound 87, 2,6-difluoro-N-(6-(4-(4-fluorophenyl)-1-(piperidin-4-yl)-1H-imidazol-5-yl)imidazo[1,2-b]pyridazin-2-yl)isonicotinamide] |
| 7.85 | 9.13 | O=C(Nc1cn2nc(-c3c(-c4ccc(F)cc4)ncn3C3CCN(C(=O)OC4CCCC4)CC3)ccc2n1)c1ccnc(F)c1 [Compound 77, cyclopentyl 4-(5-(2-(2-fluoroisonicotinamido)imidazo[1,2-b]pyridazin-6-yl)-4-(4-fluorophenyl)-1H-imidazol-1-yl)piperidine-1-carboxylate] |
| 9.18 | 9.95 | Cc1nc(-c2ccc(F)cc2)c(-c2ccc3nc(NC(=O)c4ccnc(F)c4)cn3n2)n1C1CCN(C[C@H](O)C(F)(F)F)CC1 [Compound 143, (S)-2-fluoro-N-(6-(4-(4-fluorophenyl)-2-methyl-1-(1-(3,3,3-trifluoro-2-hydroxypropyl)piperidin-4-yl)-1H-imidazol-5-yl)imidazo [1,2-b]pyridazin-2-yl)isonicotinamide] |
| 8.24 | 9.40 | O=C(Nc1cn2nc(-c3c(-c4ccc(F)cc4)nc4n3CCOC4)ccc2n1)c1ccnc(F)c1 [Compound 447, 2-Fluoro-N-(6-(2-(4-fluorophenyl)-6,8-dihydro-5H-imidazo[2,1-c][1,4]oxazin-3-yl)imidazo[1,2-b]pyridazin-2-yl)isonicotinamide] |
| 7.65 | 8.64 | Cc1nc(-c2ccc(F)cc2)c(-c2ccc3nc(NC(=O)c4ccnc(F)c4)cn3n2)n1C1CCN(CCCF)CC1 [Compound 140, 2-fluoro-N-(6-(4-(4-fluorophenyl)-1-(1-(3-fluoropropyl)piperidin-4-yl)-2-methyl-1H-imidazol-5-yl)imidazo[1,2-b]pyridazin-2-yl)isonicotinamide] |
| 7.92 | 8.96 | CC(C)NC(=O)N1CCn2c(nc(-c3ccc(F)cc3)c2-c2ccc3nc(NC(=O)c4ccnc(F)c4)cn3n2)C1 [Compound 482, 3-(2-(2-Fluoroisonicotinamido)imidazo[1,2-b]pyridazin-6-yl)-2-(4-fluorophenyl)-N-isopropyl-5,6-dihydroimidazo[1,2-a]pyrazine-7(8H)-carboxamide] |
| 8.14 | 9.28 | O=C(Nc1cn2nc(-c3c(-c4ccc(F)cc4)ncn3C3CCN(CC(F)(F)F)CC3)ccc2n1)c1ccnc(F)c1 [Compound 35, 2-fluoro-N-(6-(4-(4-fluorophenyl)-1-(1-(2,2,2-trifluoroethyl)piperidin-4-yl)-1H-imidazol-5-yl)imidazo[1,2-6]pyridazin-2-yl)isonicotinamide] |
| 8.64 | 9.49 | O=C(Nc1cn2nc(-c3c(-c4ccc(F)cc4)ncn3C3CCCCC3)ccc2n1)c1ccnc(F)c1 [Compound 257, N-(6-(1-cyclohexyl-4-(4-fluoro-phenyl)-1H-imidazol-5-yl)imidazo[1,2-b]pyridazin-2-yl)-2-fluoroisonicotinamide] |
| 8.95 | 9.58 | Cn1ccnc1CN1CCC(n2cnc(-c3ccc(F)cc3)c2-c2ccc3nc(NC(=O)c4ccnc(F)c4)cn3n2)CC1 [Compound 27, 2-fluoro-N-(6-(4-(4-fluorophenyl)-1-(1-((1-methyl-1H-imidazol-2-yl)methyl)piperidin-4-yl)-1H-imidazol-5-yl)imidazol[1,2-b]pyridazin-2-yl)isonicotinamide] |
